In data set [1] the target is T1, human calcitonin receptor (Homo sapiens, UniProt P30988).
T1 construct: Hollex encoded a protein of 474 amino acids; expressed in transfected cells; host or cells: BHK 570 / BHK/KZ10-20-48 (baby hamster kidney) stably transfected with pHollex
T1 sequence (P30988 25-474): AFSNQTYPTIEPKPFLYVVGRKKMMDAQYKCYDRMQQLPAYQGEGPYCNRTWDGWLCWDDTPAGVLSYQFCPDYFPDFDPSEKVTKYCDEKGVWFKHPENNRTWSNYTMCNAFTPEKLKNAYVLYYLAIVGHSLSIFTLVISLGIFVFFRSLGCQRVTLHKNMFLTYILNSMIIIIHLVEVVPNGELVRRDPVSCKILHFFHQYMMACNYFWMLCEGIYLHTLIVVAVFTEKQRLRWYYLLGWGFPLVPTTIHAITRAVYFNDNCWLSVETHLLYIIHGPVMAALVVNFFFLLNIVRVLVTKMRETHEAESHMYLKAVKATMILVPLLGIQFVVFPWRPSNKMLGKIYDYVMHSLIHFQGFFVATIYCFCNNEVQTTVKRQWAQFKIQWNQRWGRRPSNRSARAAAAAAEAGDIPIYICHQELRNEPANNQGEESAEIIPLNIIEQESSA
The data set can be described thus: CRE-luciferase induction in BHK/KZ10-20-48 cells transfected with pHollex (Hollex1, Hollex2). Format: cell-based. To be noted: Hollex1 and Hollex2 clones; 4 h at 37° C.; FIG. 3 and FIG. 4. As for the experimental part:
This cell line permits the measurement of luciferase activity, adenylate cyclase activity and intracellular calcium concentrations in response to calcitonin binding to its receptor.
Plasmid KZ10 was transfected into BHK570 cells (available from ATCC as Accession no. CRL 10314) using the calcium phosphate precipitation method essentially as described by Graham and Van de Eb (Virol. 52: 456, 1973, which is incorporated by reference herein). The transfected cells were grown in growth medium (Dulbecco's modified Eagle's medium (DMEM) containing 10% fetal calf serum and 2.0 mm L-glutamine). After a few days in nonselective growth medium, the growth medium was replaced with methotrexate (MTX) selection medium (growth medium containing 250 nM MTX). The cells were then allowed to grow to confluency after which they were trypsinized and plated at limiting dilution into the wells of 96-well plates. […]
Induction was initiated by removing old medium from the wells and adding 100 μl of fresh growth medium and 100 μl of each 2× solution in triplicate sample wells. Uninduced levels were determined in triplicate wells to which 100 μl of DMEM containing 10% fetal calf serum was added. […]
Following induction, the medium was removed, and the wells were washed once with 200 μl/well PBS. […] The fold induction of luciferase for each agonist was calculated as follows: […]

A further data set concerns the target T2, T47D cells (Homo sapiens, UniProt P30988).
T2 construct: T47D cells were used as a positive control; endogenous in cells; host or cells: T47D human breast carcinoma cells
T2 sequence (P30988 25-474): T1 sequence (P30988 25-474)
The data set can be described thus: Calcitonin competition binding assay with T47D cells (positive control). To be noted: T47D (pos. control). On the procedure:
Clones Hollex1 and Hollex2 were tested for receptor-mediated ability to bind calcitonin using a competition assay. T47D cells were used as a positive control and BHK cells transfected with Zem1698 were used as a negative control.
The cells were rinsed in binding medium (500 ml RPMI 1640 (Sigma, St. Louis, Mo.), 1 mg/ml bacitracin (Sigma), and 1 mg/ml BSA (Boehringer Mannheim)) to remove the serum. […] The cells were incubated for 1.5 hours at room temperature, and then rinsed 3 times with PBS to remove unincorporated radioactivity. Five hundred microliters of 0.25N NaOH was added to each well to solubilize the cells. The samples were collected from each well and CPMs were counted on a gamma counter.

Data set [2] has as its target T1, human calcitonin receptor. Nature of the data set: Inositol triphosphate assay in BHK 570 cells expressing pHollex. It is filed as cell-based.
Method: BHK 570 cells expressing the calcitonin receptor from pHollex or mock-transfected BHK 570 cells were plated into 24-well tissue culture dishes at about 200,000 cells per well. After 24 hours, the cells in each well were labeled by incubation in 0.5 ml of Dulbecco's Modified Eagles Medium (DMEM, JRH Biosciences, Lenexa, Kans.) containing 10% fetal calf serum and 4.0 μCi/ml of myo-(2-^3 H) inositol (specific activity=20 Ci/mmol; Amersham). At the end of a 24 hour incubation, the cells were washed with 1 ml prewarmed DMEM that had been buffered with 20 mM Hepes, pH 7.0 (Sigma Chemical Co.) containing 10 mM LiCl. The wash medium was removed by aspiration and replaced with 900 μl of fresh buffered medium. The cells were incubated for five to fifteen minutes at 37° C. After incubation, appropriate concentration of each agonist or antagonist was added to triplicate wells, and the cells were incubated for 30 minutes at 37° C.
The reaction was terminated by placing the cells on ice. Following aspiration of the media, the cells were then lysed by the addition of 1 ml of cold DMEM and 1 ml of ice-cold 10% perchloric acid. After ten minutes the cell lysates were transferred to tubes containing 500 μl of 10 mM EDTA, pH 7.0. […] Ten milliliters of OPTIFLUOR (Packard Instrument Co., Menden, Conn.) were added to each sample, and the samples were counted. […]
Data set [3] concerns the target T1, human calcitonin receptor. The data set can be described thus: [Ca2+]i response of BHK cells expressing cloned calcitonin receptor to calcitonin and extracellular calcium (fura-2). It is filed as cell-based. To be noted: about 700,000 calcitonin receptors/cell. On the procedure: BHK cells expressing the cloned calcitonin receptor were assayed to determine their response to extracellular calcium. Cells were washed three times with a buffer (140 mM NaCl, 5 mM KCl, 0.5 mM MgCl2, 0.5 mM CaCl2 (concentration varied in some experiments), 10 mM glucose, 10 mM HEPES, pH 7.4) made using high purity salts (Aldrich, Milwaukee, Wis.) and sterile water (Baxter, McGaw Park, Ill.). Cells were loaded with fura-2 AM (Molecular Probes Inc.) (10 μg/ml) for 30 minutes essentially as described above, then washed an additional three times. Slides were mounted at room temperature on an inverted microscope (EPIPHOT, Nikon), and a field of cells (typically 20-30 cells) was located using a 40× Nikon fluor objective. The ratio of fura-2 emission at excitation wavelengths of 340 and 380 nm was recorded every 5 seconds. Individual cells were analyzed on a computer workstation (Sun Microsystems) using a software system designed for ratio imaging (Inovision). The concentration of calcium chloride in buffers was determined by comparison to calcium standards on a calcium analyzer (Nova Biomedical Corp. Waltham, Mass.). All experiments were reproduced three to eight times. Fura-2 ratio 340 nm to 380 nm values (R) were converted to [Ca^2+ ]i concentrations after calibration of the instrument using the formula: calcium (nm)=2240[R-0.3)/(20-R)]. Basal [Ca^2+ ]i concentrations were typically 80-150 nm. The peak fura-2 ratios 340/380 of individual cells exposed to 20 nm salmon calcitonin followed by 25 mM calcium chloride were averaged for some experiments and converted to [Ca^2+ ]i concentrations. Standard error was calculated at a 99% level using a Z score of 2.58 (n>30).

Take salmon calcitonin: the “fold induction of luciferase” value in data set [1] is 5-10 fold. Moreover, the dissociation constant (Kd) (in general, the free concentration of one partner at which half of the binding sites on the other are occupied at equilibrium, for simple one-to-one binding) at T47D cells turned out to be 0.6 ± 0.5 nM. Besides, the EC50 in data set [2] (Hollex1, 30 min at 37° C., read-out: ED50 (inositol phosphate)) turned out to be 9.5 nM. Moreover, the inositol phosphate response entry in data set [2] (Hollex2) is given as “no response”. Moreover, the “concentration giving maximal transient [Ca2+]i increases” value in data set [3] was 10-20 nm.

Values taken from US5622839A (ZymoGenetics, Inc., priority 1995, dated 1997).
